Test: gradient 5% acetonitrile 3 min, to 50% in 2 min, to 85% in 15 min, held 3 min, 100 µL/min
Settings: column: Zorbax Extend-C18 2.1 x 50 mm; eluents: water / acetonitrile, 0.1% formic acid
Procedure, shortened: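 In both positive and negative ionization mode, a quadrupole time-of-flight mass spectrometer coupled to HPLC analyzed pure standards run in mixtures of ~100 molecules. The Zorbax Extend-C18 column (2.1 × 50 mm, 1.8 μm) was operated at 100 μL/min with water and acetonitrile, each containing 0.1% formic acid. The dead volume was 40 μL and the dwell volume 900 μL. Retention time came from adduct peaks that were computationally picked and individually inspected by hand.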

Row | RP-LC retention time [s] | SMILES
1 | 852 | Cc1ccc(NC(=O)C2CCCN(S(=O)(=O)c3c[nH]c(C(=O)N4CCCC4)c3)C2)cc1Cl (stereo not drawn)
2 | 586 | c1cc(N2CCCCCC2)ncc1-c1noc(CN2CCCC2)n1
3 | 579 | CCCN1CCN(c2ncc3c(n2)CCN(Cc2ccc(OCC)c(OCC)c2)C3)CC1
4 | 788 | COC(=O)c1c(NCc2ccc(OC)cc2)c2cccc(Cl)c2[nH]c1=O
5 | 570 | Cc1nn(C)c(C)c1CCN(C)C(=O)C1CCCCC(=O)N1 (stereo not drawn)
6 | 1000 | CCOC(=O)c1ccccc1NC(=O)N1CCSc2nc(C)cc(C)c21
7 | 688 | O=c1nc(Oc2ccccc2)nc2ncccn12
8 | 766 | CC(C)NC(=O)N1CCC(c2nc(C(C)C)cs2)CC1
9 | 954 | O=C(Nc1c(F)cccc1F)N1CCc2nc(-c3ccc(Cl)cc3)ncc2C1
10 | 984 | COc1ccc(-c2ncc3c(n2)CCN(C(=O)Nc2cc(Cl)ccc2C)C3)cc1
11 | 579 | CNC(=O)NC(=O)COc1cc(=O)n2cccc(C)c2n1
12 | 589 | CC1CCCN(c2ccc(-c3noc(CN4CCC(C(N)=O)CC4)n3)cn2)C1 (stereo not drawn)
13 | 905 | O=C(Nc1ccc(OCc2nnc(-c3ccccc3)o2)cc1)c1ccccn1
14 | 942 | O=C(CSc1ccc(NC(=O)c2cccs2)nn1)Nc1cccc(Cl)c1Cl
15 | 596 | O=C(c1cc2ccc3cccnc3c2[nH]1)N1CCN(c2ccccn2)CC1
16 | 921 | O=c1n(Cc2ccc3c(c2)OCO3)nc2c(S(=O)(=O)N3CCCCCC3)cccn12
17 | 1050 | COc1cc(-c2noc(Cc3nnc(-c4cc(C)cc(C)c4)o3)n2)cc(OC)c1OC
18 | 661 | CCc1nc(N)n(CC(=O)Nc2ccc(Cl)cc2)c(=O)c1C
19 | 888 | Cc1ccc(S(=O)(=O)N2CCC3(CC2)CC(C)(O)CCO3)cc1Cl (stereo not drawn)
20 | 917 | COc1ccc(-c2csc(NC(=O)CCn3c(=O)sc4ccccc43)n2)cc1OC
21 | 618 | CC(C)CNC(=O)CCc1ccc2nc(-c3ccccc3)[nH]c2c1
22 | 660 | O=C(Nc1cccc(Br)c1)N1CCC(n2cnc3cccnc32)CC1

Row | RP-LC retention time [s] | SMILES
23 | 666 | CNC(=O)C1CCCN(c2nc3ncn(CC(=O)NCc4ccc(Cl)cc4)c(=O)c3s2)C1 (stereo not drawn)
24 | 693 | CC(C)Cc1ccc(S(=O)(=O)N2CCc3nc[nH]c3C2)cc1
25 | 625 | CCCNC(=O)CCc1c(-c2ccc(Cl)cc2)nc2ccccn12
26 | 540 | Cn1c(C2CCN(C(=O)c3ccc(Cl)cc3)C2)nc2ccncc21 (stereo not drawn)
27 | 772 | COc1ccccc1-c1nc2cnccn2c1NCCC(=O)N1CCc2ccccc21
28 | 890 | CC(C)N1CCN(c2cc(-c3nc(-c4cccc(F)c4)no3)c3ccccc3n2)CC1
29 | 961 | COc1ccc(C2CCCN2C(=O)c2cc(-c3ccco3)on2)cc1 (stereo not drawn)
30 | 790 | COc1ccc(-n2ccn3cc(-c4ccc(F)cc4)nc3c2=O)cc1
31 | 673 | Cc1cc(N2CCCCC2)n2nc(CN3CCN(c4ccccc4F)CC3)nc2n1
32 | 687 | O=S(=O)(c1ccc(F)cc1Cl)N1CCCn2nc(-c3cccnc3)cc2C1
33 | 596 | COc1ccc2[nH]c(=O)c(CCC(=O)NC3CCN(Cc4ccccc4)CC3)cc2c1
34 | 668 | O=C(c1ccoc1)N1CC(F)(F)C[C@H]1c1nnc(-c2ccncc2)o1
35 | 723 | COc1ccccc1NC(=O)NC(C(=O)N1CCc2ccccc21)C(C)C (stereo not drawn)
36 | 941 | O=c1c(S(=O)(=O)N2CCCCCC2)cccn1Cc1ccccc1F
37 | 791 | CCc1ccc(S(=O)(=O)N2CCC3(CC2)NCCN=C3NCc2ccccc2C)cc1
38 | 604 | CC(C)NC(=O)CC1Sc2ncccc2N(C)C1=O (stereo not drawn)
39 | 646 | CCn1ccc2cc(S(=O)(=O)N3CCCC(C(=O)N4CCN(C)CC4)C3)ccc21 (stereo not drawn)
40 | 891 | Cc1cc(C(F)F)n2nc(C(=O)Nc3ccc(Br)cc3)nc2n1
41 | 863 | O=C(NC1(c2nc(-c3ccncc3)no2)CCCCC1)c1ccccc1
42 | 856 | CC(C)n1ncc(NC(=O)Cc2ccc(Cl)cc2)c(N2CCOCC2)c1=O
43 | 848 | Cc1cccc(NC(=O)CN2C(=O)CCc3cc(S(=O)(=O)N4CCCCC4C)ccc32)c1 (stereo not drawn)
44 | 730 | Cc1noc(-c2ccc(S(=O)(=O)N3CCN(c4ccccn4)CC3)s2)c1C

Row | RP-LC retention time [s] | SMILES
45 | 1060 | CCn1nc(C(=O)Nc2nc3c(s2)CCc2ccccc2-3)cc1C
46 | 589 | COc1ncc(C(=O)N2CCCC2)cn1
47 | 1030 | CCS(=O)(=O)N1CCCc2cc(C(=O)Nc3ccc(Br)cc3)ccc21
48 | 730 | CCC(C)NC(=O)C1CCCN(C(=O)Nc2ccc(NC(=O)Nc3ccccc3)cc2)C1 (stereo not drawn)
49 | 894 | Cc1cccc(-n2ccc(=O)c(-c3nc(-c4ccc5c(c4)OCO5)no3)n2)c1
50 | 966 | COc1ccc(N2CCN(c3cc(SCC(=O)Nc4ccc(C)cc4)ncn3)CC2)cc1
51 | 836 | O=C1CCCCC(Cc2ccccc2)(C(=O)N2CCc3ccccc3C2)N1 (stereo not drawn)
52 | 981 | O=C(NC1CCCCC1)c1nc(Cn2c(=O)oc3ccc(Cl)cc32)no1
53 | 716 | O=C(c1ccc(-c2ccsc2)nc1)N1CCCC1
54 | 734 | COc1ccc(CNC(=O)N2CCC3(C2)C(=O)N(C)c2ccccc23)cc1 (stereo not drawn)
55 | 887 | CCOc1ccc(N2C=C(C(=O)OC)S(=O)(=O)c3ccccc32)cc1
56 | 790 | CCOC(=O)c1c(C)[nH]c(C(=O)N2CCCC(C(=O)NCc3ccc(C)o3)C2)c1C (stereo not drawn)
57 | 862 | Cc1noc(-c2ccc(-n3cnc(C(=O)NC(C)c4ccc(F)cc4)c3)nc2)n1 (stereo not drawn)
58 | 613 | CCC(=O)N1CCc2cc(C(N)=O)ccc21
59 | 690 | CN(C)C(=O)Cn1c(=O)c2cccn2c2ccc(F)cc21
60 | 936 | O=C(c1ccc(Cl)cc1Cl)N1CCN(c2cc(-c3ccccc3)[nH]n2)CC1
61 | 607 | O=S(=O)(c1cccc(-c2cn3ccccc3n2)c1)N1CCCC1
62 | 691 | O=C(NCc1ccc2c(c1)OCO2)c1nc(-c2ccnc(N3CCCCC3)c2)no1
63 | 695 | CCOc1ccc(NC(=O)C2=C(C)NC(=O)NC2c2ccc([N+](=O)[O-])cc2)cc1 (stereo not drawn)
64 | 875 | O=C(Cc1ccccc1F)N1CCCn2nc(-c3cccs3)cc2C1
65 | 875 | CCOc1ccc(NC(=O)c2sc(N3CCCC3=O)nc2CC)cc1
66 | 867 | CCOC(=O)c1csc(NC(=O)Nc2cccc(Cl)c2)n1

Row | SMILES | RP-LC retention time [s]
67 | Cc1ccsc1C(=O)N1CCC2(CC1)NCc1ccccc1-n1ccnc12 | 588
68 | COc1ccc2c(c1)C1(CCN(C(=O)NC(C)C)C1)C(=O)N2C (stereo not drawn) | 681

Reference: the METLIN SMRT retention time set (Domingo-Almenara et al. 2019)
